What is called EC50 is the midpoint of the concentration-response curve. By IC50 is commonly meant the concentration needed to halve the response being measured.

The results in this text go back to PubChem BioAssay AID179 (DTP/NCI, 2004).

The test has as its system CEM cells HIV-1 protection, formazan growth assay. Kind of test: NCI AIDS Antiviral Assay. The note with it: for IC50: measured here: growth of uninfected CEM cells. The gist of the method:
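Category rules: moderately active means at least 50% protection on retest, and confirmed active means 100% protection reproducibly. The underlying data came from a formazan growth assay in HIV-1-infected CEM cells.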

Values joined by “and” are separate entries in the source; they are usually repeats but may differ in a detail not shown here. Equal values may be shown once. Active and inactive are the calls of the source.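 Rule for the calls: active = compounds giving half or more protection of infected cells from virus-caused growth loss, again on retest; inactive = the rest.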

On to `N#C/C(C(=S)Nc1ccc(Cl)cc1)=C1/Nc2ccccc2O1`, for which the EC50 is above 200 µM and the IC50 is 37.2 µM.
On the same counts, the results for `Clc1ccc(C2=Cc3nc2c(-c2ccccc2)c2ccc([nH]2)c(-c2ccccc2)c2nc(c(-c4ccccc4)c4ccc([nH]4)c3-c3ccccc3)C=C2)cc1` are above 200 µM and above 200 µM.
In the case of `CC(C)C12OC1CC13OC1C1OC1C1OC132` (stereo unspecified), the EC50 is above 200 µM and the IC50 was above 200 µM.
Take `O=C1c2cccc3cc([N+](=O)[O-])cc(c23)C(=O)N1c1ccc(OCCN2CCCC2)cc1`: the EC50 is above 200 µM and the IC50 was determined as 5.62 µM.
For `COC1OC(CO)C(O)C2NCSC12` (stereo unspecified), the EC50 was 33.9 µM and the IC50 is above 200 µM.
Taken in the same sequence, the figures for `c1csc(-c2ccc(-c3ccc(-c4cccs4)s3)s2)c1` were above 200 µM and above 200 µM.
Take `CC1CCC2(OC2(C)C)C(=O)C1` (stereo unspecified): the EC50 is above 200 µM and the concentration for half-maximal inhibition (IC50) was above 200 µM.
As for `COc1cccc(CCn2c(N)c(C#N)c3ccc([N+](=O)[O-])cc3c2=O)c1`, the EC50 is above 200 µM and the IC50 turned out to be 1.12 µM.
Taken in the same sequence, the figures for `CN(C)c1ccc(C(=S)c2ccc(N(C)C)cc2)cc1` were above 200 µM and 0.741 µM.
Taken in the same sequence, the figures for `COC(=O)c1cc([O-])c2sc(C)c(C)[n+]2n1` were above 1050 µM and 724 µM.
Consider `O=C1C(=O)N(c2ccc(Cl)cc2)C(=O)C(=O)C1c1nc2ccccc2s1`, for which the EC50 was above 18.6 µM and the IC50 was above 18.6 µM.
As to `COC(CN(C)C(=O)C(C)NC(=O)c1ccccc1)OC` (stereo unspecified), the result was inactive.
As for `S=c1[nH]c2ccccc2[nH]c1=S`, the EC50 was above 200 µM and the IC50 is 26.3 µM.
Turning to `CSC1=C(c2ccc(Cl)cc2)SC(N2CCCCC2)N1c1ccc([N+](=O)[O-])cc1` (stereo unspecified), the EC50 is above 200 µM and the IC50 worked out at 97.7 µM.
In the case of `O=C(CNc1ccccc1[N+](=O)[O-])Nn1cnc2ccc(S(=O)(=O)Nc3ccccc3[N+](=O)[O-])cc2c1=O`, the EC50 is above 200 µM and the IC50 was above 200 µM.
For `O=C(O)C1=CN=C(C(=O)O)NN1`, the EC50 was above 1150 µM and the IC50 stood at 617 µM.
In the case of `CCCCNc1nc(NC2OCC(OC(C)=O)C(OC(C)=O)C2OC(C)=O)c(N=O)c(=O)n1C` (stereo unspecified), the EC50 is above 200 µM and the IC50 is above 200 µM.
Regarding `O=C1C2c3[nH]c4ccccc4c3C3CCSCC3C2C(=O)N1c1ccccc1` (stereo unspecified), the result was inactive.
Same read-out and setting: for `CC(=O)C1CCN(Cc2ccccc2)C1` (stereo unspecified) the value was “inactive”.
For `CC1=Nc2c(ccc3c2C(=O)c2ccccc2C3=O)NC(c2cccc3c2CCC3)C1` (stereo unspecified), the EC50 is above 9.33 µM and the IC50 was above 9.33 µM.
As to `OC1COC(n2c3ccc(Br)cc3c3ccc4c5ccccc5[nH]c4c32)C(O)C1O` (stereo unspecified), the EC50 was above 112 µM.
`C1=Nc2ccc(cc2)-c2ccc(cc2)N=Cc2ccccc2OCc2cccc(n2)COc2ccccc21`: the EC50 was above 200 µM and the IC50 is above 200 µM.
In the case of `O=c1ncccn1C1OC(CO)C(O)C1F` (stereo unspecified), the outcome was inactive.
For `N#Cc1c(NN)nc(NN)c(C#N)c1-c1ccccc1`, the EC50 is above 97.7 µM and the half-inhibitory concentration (IC50) worked out at 50.1 µM.
Taken in the same sequence, the figures for `O=C1NC2C(NC(=O)N2Cl)N1Cl` (stereo unspecified) were above 200 µM and above 200 µM.
Taken in the same sequence, the figures for `O=C(Nc1ccccc1)c1cc2c(cc1Cl)Sc1nccn1S2(=O)=O` were above 200 µM and above 100 µM.
`CN1CCC(OC(c2ccccc2)c2ccc(Cl)cc2)C1` (stereo unspecified): the outcome was inactive.
Consider `CC(C)(C)C1COP(=S)(C(C)(C)C)OC1` (stereo unspecified), for which the EC50 was above 14.5 µM and the IC50 was above 14.5 µM.
For the compound `N#Cc1c(-c2ccccc2)cc(-c2ccccc2)n(C2OC(CO)C(O)C(O)C2O)c1=O` (stereo unspecified), the EC50 is above 219 µM; the IC50 is 214 µM and > 60.3 µM.
Take `O=c1c2ccccc2sc2nc(CCl)nn12`: the EC50 is above 355 µM and the IC50 worked out at 57.5 µM.
On to `CCOc1ccccc1NC(=O)C(=O)Cc1nc2ccccc2s1`, for which the outcome was inactive.
Regarding `CS/C(c1ccccc1)=[N+](\[O-])Cc1ccccc1`, the EC50 was above 646 µM and the IC50 came out at 457 µM.
Taken in the same sequence, the figures for `COc1nc2ccc(CNc3ccc(C(=O)O)cc3)cc2nc1OC` were above 200 µM and above 200 µM.
On the same counts, the results for `CC(=O)C(C)[P+](c1ccccc1)(c1ccccc1)c1ccccc1` (stereo unspecified) are above 200 µM and 39.8 µM.
For `Cc1[nH]c(-c2ccccc2)c2nc(N(C)C)oc(=O)c12`, the EC50 was above 200 µM and the IC50 was above 200 µM.
On to `COc1ccc(-c2cc(O)c3nc4ccccc4n3c2)cc1`, for which the EC50 is above 200 µM and the IC50 is above 200 µM.
As for `CCC[CH2][Sn]1([CH2]CCC)[O]C(=O)c2cccc(OC)c2[O]1`, the result was inactive.
For `O=C1C(O)C(O)C(O)C(O)C1O` (stereo unspecified), the EC50 was above 200 µM and the IC50 is above 200 µM.
Consider `CC(=O)c1sc(=N)n(-c2c(C)cccc2C)c1C`, for which the EC50 was above 200 µM and the IC50 is above 200 µM.
For `COc1ccc(C2S/C(=C\c3ccc(OC)cc3OC)C(=O)N2NC(=O)Cc2ccccc2)cc1` (stereo unspecified), the EC50 is above 52.5 µM and the IC50 is above 52.5 µM.
`COc1cc(Br)c(CC2NCCc3cc(OC)c(OC)cc32)cc1OC` (stereo unspecified): the EC50 was above 224 µM and the IC50 was above 224 µM.
On to `COC(=O)c1ccccc1COC(=O)c1cc(C(=CCC[C@H]2CC[C@@]3(C)[C@@H](CC[C@@H]4[C@@H]3CC[C@]3(C)[C@@H](C(C)CCCC(C)C)CC[C@@H]43)C2)c2cc(Cl)c(OCc3ccccc3C(=O)OC)c(C(=O)OCc3ccccc3C(=O)OC)c2)cc(Cl)c1OCc1ccccc1C(=O)OC` (stereo partly specified), for which the EC50 is above 200 µM and the IC50 was above 200 µM.
With `Cn1c(=O)c2[nH]c(NN)nc2n(C)c1=O`, the EC50 was above 200 µM and the IC50 came to 105 µM.
As for `CC[As](CC)SCC1OC(OC(C)=O)C(OC(C)=O)C(OC(C)=O)C1OC(C)=O` (stereo unspecified), the EC50 is above 191 µM and the IC50 came out at 4.57 µM.
As for `O=C(c1ccncc1)n1nc(-c2ccccc2)c(N=Nc2ccc([N+](=O)[O-])cc2)c1-c1ccccc1`, the EC50 was above 39.8 µM and the IC50 was above 39.8 µM.
For `COc1cccc(C2NC(=O)N3C(c4cccc(OC)c4)NC(=O)N23)c1` (stereo unspecified), the EC50 was above 200 µM and the IC50 turned out to be 89.1 µM.
On the same counts, the results for `Cc1ccc(-n2c(=S)n(-c3ccccc3C)c3nc4ccccc4nc2/c3=N\Nc2ccc(Cl)cc2)cc1` are 117 µM and 123 µM.
On the same counts, the results for `CCOC(=O)c1cc2c([nH]1)c(OC(C)=O)cc1c2ccn1Cc1ccccc1` are above 200 µM and above 200 µM.
For the compound `CC(=O)C1(c2ccccc2)CCNCC1`, the outcome was inactive.
On the same count and under the same terms, for `Cc1ccc2c(n1)C(N(C)C)=CC(=O)C2=O` the value was “inactive”.
As to `CN(C)c1ccc(C2CC(c3ccc4ccccc4c3O)=NN2c2ccc([N+](=O)[O-])cc2[N+](=O)[O-])cc1` (stereo unspecified), the EC50 is above 151 µM and the IC50 turned out to be 33.1 µM.
Take `O=C1N(c2ccccc2)N=C(c2ccccc2)C12CC2`: the EC50 is above 200 µM and the half-inhibitory concentration (IC50) amounted to 107 µM.
Take `CC(C)c1cccc(C(C)C)c1NC(=O)C(=O)Cc1nc2ccc([N+](=O)[O-])cc2[nH]c1=O`: the EC50 is above 490 µM and the IC50 amounted to 89.1 µM.
